Here are results for three molecules from patent US11517577B2, “Fluorinated bile acid derivatives” (NZP UK LIMITED, priority 2018, dated 2022).

Series [1] has as its system SHP expression in Huh7 cells. Nature of the series: qPCR of SHP (NR0B2) expression in Huh7 cells. Particulars: Huh7, 24 hours. The series is classed as cell-based, human. How it is done: (§1) To assess specific changes in gene expression in response to the test compounds, precise quantification and analysis by quantitative real-time PCR (qPCR) was carried out. Mammalian tissue culture experiments involved seeding Hepatocellular carcinoma, (Huh7) cells, in 6 well plates at a concentration of 1×10^6 cells/well and incubating for 24 hours at 37° C. to allow attachment.
(§2) Testing in Huh7 cells and HepG2 cells was also carried out for Compound 14 in the same way as for Compound 2.
Total RNA was extracted using the RNAQUEOUS™ Total RNA Isolation kit (Ambion) and all reagents were provided in the kit or prepared according to manufacturer's instructions. For cultured cells, the medium was removed and cells were washed with 1×PBS to remove cellular debris and residual medium. Total RNA was extracted from fresh cells. For 1×10^6 cells, 350 μl lysis buffer was added directly to the well and cells were harvested by scraping with a pipette tip. Lysed cells were combined with an equal volume of 64% ethanol and mixed thoroughly by pipetting. The ethanol-lysate mix was transferred to a column and spun at 12,000×G for 1 minute and flow through discarded. […]
(§3) The ready-to-use reaction mastermix, ITAQ™ Universal SYBR® Green Supermix (Biorad) was used for all qPCR reactions. […] Melting curve analysis was performed straight after each run by increasing the temperature from 60° C. to 95° C. in 0.3° C. increments, and measuring fluorescence dissociation.
To quantify gene expression, the baseline-corrected Ct value was determined automatically by the qPCR system software (Applied Biosystems). Relative changes in gene expression were determined by the Livak, or ΔΔCt, method whereby the Ct values of target genes were normalised to Ct value of the reference gene, for both the samples treated with vehicle/untreated samples (control) and the samples treated with compound (test samples). […] And finally, the expression ratio was calculated using the equation 2^−ΔΔC^t. […]
On the technique in general: Quantitative PCR measures a nucleic acid by following its amplification.

Series [2] concerns CYP7A1 expression in HepG2 cells. Nature of the series: qPCR of CYP7A1 expression in HepG2 cells. The series is classed as cell-based, human. Particulars: HepG2, 24 hours. How it is done: (§4) Compound 2 and OCA were also tested in the human hepatocellular carcinoma cell line, HepG2.
as §2
(§5) Total RNA was extracted using the RNAQUEOUS™ Total RNA Isolation kit (Ambion) and all reagents were provided in the kit or prepared according to manufacturer's instructions. For cultured cells, the medium was removed and cells were washed with 1×PBS to remove cellular debris and residual medium. Total RNA was extracted from fresh cells. For 1×10^6 cells, 350 μl lysis buffer was added directly to the well and cells were harvested by scraping with a pipette tip. […]
as §3
(§6) To quantify gene expression, the baseline-corrected Ct value was determined automatically by the qPCR system software (Applied Biosystems). Relative changes in gene expression were determined by the Livak, or ΔΔCt, method whereby the Ct values of target genes were normalised to Ct value of the reference gene, for both the samples treated with vehicle/untreated samples (control) and the samples treated with compound (test samples). […]

Series [3] relates to TGFβ1 expression in HepG2 cells. Nature of the series: qPCR of TGFβ1 expression in HepG2 cells. Particulars: HepG2, 24 hours. The series is classed as cell-based, human. The protocol:
as §4, §2, §5, §3, §6

A further series concerns the target T1, TGR5 (GPBAR1) receptor (Homo sapiens, UniProt Q8TDU6).
T1 sequence (Q8TDU6 1-330): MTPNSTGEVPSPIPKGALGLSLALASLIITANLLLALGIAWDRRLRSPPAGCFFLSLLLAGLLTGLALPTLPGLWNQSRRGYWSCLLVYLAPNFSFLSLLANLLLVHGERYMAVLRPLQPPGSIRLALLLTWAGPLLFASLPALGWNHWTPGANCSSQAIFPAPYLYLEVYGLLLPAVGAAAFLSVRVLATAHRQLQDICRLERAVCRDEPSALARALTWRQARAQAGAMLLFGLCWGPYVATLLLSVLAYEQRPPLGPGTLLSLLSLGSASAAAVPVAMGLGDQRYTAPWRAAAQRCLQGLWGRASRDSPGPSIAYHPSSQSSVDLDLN
Nature of the series: HITHUNTER cAMP assay, agonist mode, TGR5 receptor. Particulars: for Emax: read-out: Max Response; for agonist activity at the TGR5 receptor: statement in words on Table 2. A general note: Cyclic AMP is a second messenger, typically raised through Gs and lowered through Gi signalling.

The target in series [4] is T2, Human Farnesoid X Receptor (NR1H4, FXR) (Homo sapiens, UniProt Q96RI1).
T2 sequence (Q96RI1 1-486): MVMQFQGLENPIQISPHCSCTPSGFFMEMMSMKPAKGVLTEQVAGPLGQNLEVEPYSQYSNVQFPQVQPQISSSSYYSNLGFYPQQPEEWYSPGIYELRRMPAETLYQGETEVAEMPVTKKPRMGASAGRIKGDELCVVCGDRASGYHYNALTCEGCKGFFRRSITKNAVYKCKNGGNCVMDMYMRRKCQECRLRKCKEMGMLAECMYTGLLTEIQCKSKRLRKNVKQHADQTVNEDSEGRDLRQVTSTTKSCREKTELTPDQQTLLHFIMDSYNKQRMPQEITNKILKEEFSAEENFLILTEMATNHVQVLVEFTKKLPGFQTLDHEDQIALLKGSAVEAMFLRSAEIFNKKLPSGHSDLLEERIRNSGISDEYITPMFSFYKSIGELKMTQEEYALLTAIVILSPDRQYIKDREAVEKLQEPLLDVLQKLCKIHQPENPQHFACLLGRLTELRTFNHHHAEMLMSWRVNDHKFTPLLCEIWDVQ
Nature of the series: FXR reporter assay, EC50 and efficacy (Indigo Biosciences luciferase reporter cells). Particulars: for Efficacy: maximum point on the dose response curve, GW4064 designated as 100%. The series is classed as cell-based. The protocol:
The compounds of the invention were assayed for agonist activity at the FXR receptor.
Dose-response assays were performed as described in the technical manual of the Human Farnesoid X Receptor (NR1H4, FXR) Reporter Assay System (Indigo Biosciences Human Farnesoid X Receptor (NR1H4, FXR) Reporter Assay System, Technical Manual (version 7.1b), at the World Wide Web (www)indiqobiosciences.com).
FXR reporter cells consisting of an FXR-responsive promoter gene functionally linked to the luciferase gene were defrosted and seeded into a 96-well plate and these cells were immediately dosed with the test compounds at different concentrations (10-0.05 μM) according to the manufacturer's protocol. […] Following this, the induction of luciferase activity, which is the measure of the agonist activity, was quantified by using luminometer (TECAN) according to the manufacturer's protocol.
A general note: Reporter assays use an easily measured gene product as a stand-in for the process of interest.

Series [5] deals with OSTα expression in Huh7 cells. Nature of the series: qPCR of OSTα expression in Huh7 cells. The series is classed as cell-based, human. Particulars: Huh7, 24 hours. How it is done: as §1, §2
Total RNA was extracted using the RNAQUEOUS™ Total RNA Isolation kit (Ambion) and all reagents were provided in the kit or prepared according to manufacturer's instructions. […]
as §3, §6

For series [6] the following is noted: Xiao et al., 2017; cited from earlier work.

SMILES strings stand for the structures. Where two headings read alike, the source gives them in different places.

Procedure for TGR5 (GPBAR1) receptor: 1. cAMP Hunter cell lines were expanded from freezer stocks according to standard procedures.
Cells were seeded in a total volume of 20 μL into white walled, 384-well microplates and incubated at 37° C. for the appropriate time prior to testing.
For agonist determination, cells were incubated with sample to induce response.
Media was aspirated from cells and replaced with 15 μL 2:1 HBSS/10 mM Hepes:cAMP XS+ Ab reagent.
Intermediate dilution of sample stocks was performed to generate 4× sample in assay buffer.
5 μL of 4× sample was added to cells and incubated at 37° C. or room temperature for 30 or 60 minutes. Vehicle concentration was 1%.
After appropriate compound incubation, assay signal was generated through incubation with 20 μL cAMP XS+ ED/CL lysis cocktail for one hour followed by incubation with 20 μL cAMP XS+ EA reagent for three hours at room temperature.
Microplates were read following signal generation with a PerkinElmer ENVISION™ instrument for chemiluminescent signal detection.
Compound activity was analyzed using CBIS data analysis suite (ChemInnovation, CA).
For Gs agonist mode assays, percentage activity is calculated using the following formula, where RLU is an abbreviation for relative light units:

One may read the EC50 as the concentration giving half of the maximal effect. Lower therefore signals a more potent agent. `CC[C@H]1[C@@H](O)[C@@H]2[C@H](CC[C@]3(C)[C@@H]([C@H](C)CCC(=O)NS(=O)(=O)c4ccc(OC(F)(F)F)cc4)CC[C@@H]23)[C@@]2(C)CC[C@@H](O)[C@H](F)[C@@H]12` [Compound 14, N-(3α,7α-Dihydroxyl-4β-fluoro-6α-ethyl-5β-cholan-24-oyl)-p-trifluoromethoxy benzene sulfonamide]: in series [1] (compound at its EC90 concentration), the SHP expression levels entry was “more than doubled”. Moreover, the CYP7A1 expression result in series [2] (compound at the EC50 concentration, versus vehicle control cells) is given as “significantly decreased”. The TGFβ1 expression entry in series [3] (with increasing compound concentrations) was “decline”. Moreover, at TGR5 (GPBAR1) receptor, the EC50 is greater than 100000 nM, the Emax was determined as 0% and the “agonist activity at the TGR5 receptor” value is “neither Compound 2 nor Compound 14 has agonist activity at the TGR5 receptor”.

For the molecule `CC[C@@H]1[C@@H]2[C@@H](F)[C@H](O)CC[C@]2(C)C2CC[C@@]3(C)C(CCC3[C@H](C)CCNC(=O)NS(=O)(=O)c3ccccc3)C2[C@@H]1O` (stereo partly drawn) [Compound 2, N,N′-(3α,7α-Dihydroxyl-4β-fluoro-6α-ethyl-24-nor-5β-cholan-23-yl)-benzene sulfonyl urea], in series [4], a half-maximal response (EC50) required 24 nM and the Efficacy is 195%. The “SHP expression levels increased” value in series [1] (compound at EC50 concentration) stood at 1.5 times. Moreover, the “SHP expression levels increased” value in series [1] (higher value, printed again as 'EC50 concentration') is 2.5 times. Besides, in series [5] (compound at EC50 concentration), the “Ostα mRNA increase in expression” value is 11 fold. Moreover, the “Ostα mRNA increase in expression” value in series [5] (compound at EC90 concentration) was found to be 18 fold. The CYP7A1 expression entry in series [2] (with increasing concentrations of compound) is “downregulated”. Moreover, the TGFβ1 expression levels result in series [3] (compound at its EC50 concentration) is given as “significant downregulation”. Moreover, at TGR5 (GPBAR1) receptor, the EC50 is greater than 100000 nM, the Emax was 0% and the “agonist activity at the TGR5 receptor” value was “neither Compound 2 nor Compound 14 has agonist activity at the TGR5 receptor”.

`CC[C@H]1[C@@H](O)[C@@H]2[C@H](CC[C@]3(C)[C@@H]([C@H](C)CCC(=O)NS(=O)(=O)c4ccc(C(F)(F)F)cc4)CC[C@@H]23)[C@@]2(C)CC[C@@H](O)[C@H](F)[C@@H]12` [Compound 18, N-(3α,7α-Dihydroxyl-4β-fluoro-6α-ethyl-5β-cholan-24-oyl)-4-trifluoromethylphenyl sulfonamide] displayed an EC50 in series [4] (FXR reporter cells, 24 h incubation, normalized against EC50 of GW4064, assigned as […] nM) of 15 nM. In addition, in series [4], the Efficacy turned out to be 148%. Besides, the “liver:plasma concentration ratio” value in series [6] is “highest”.
